Data reported in patent US20260226494A1 (HANGZHOU RUIFENG BIOSCIENCE CO., LTD., priority 2023, published 2026).

Assays:
[1] = test system: non-transgenic soybean variety Wandou 28; test: Field herbicide tolerance test, single herbicides (Example 7)
Description: (§1) A randomized block design was adopted with a total of 24 plots, each measuring 4 m×5 m. […] A 1 m interval was set between adjacent plots, with three replicates for each soybean type. At the V3 growth stage, the following treatments were applied: 1) no herbicide application; 2) respective applications of glyphosate at 1800 g a.i./ha, MCPA at 1848 g a.i./ha, mesotrione at 123.75 g a.i./ha, penoxsulam at 45 g a.i./ha, nicosulfuron at 102 g a.i./ha, pyrazosulfuron-ethyl at 56.25 g a.i./ha, and flazasulfuron at 112.5 g a.i./ha. Seedling emergence rate, plant height (measured from the tallest 10 plants), and herbicide damage symptoms (evaluated from the 10 plants with the mildest symptoms) were investigated at 1, 2, and 4 weeks post-application. Herbicide damage symptom grading was performed according to GB/f 17980.42-2000. The formula for calculating herbicide damage rate was as follows:
(§2) [formula] • (×-herbicide damage rate in percentage; N-number of plants with the same level of herbicide damage; S-herbicide damage level; T-total number of plants evaluated; M-highest level)∘

[2] = test system: transgenic soybean event XP-2; test: as above; settings: for tolerance level of transgenic soybean event XP-2 to herbicides (in words): field test, Table 10 doses
Description: as §1, §2

[3] = test system: T1 generation soybean transgenic events; settings: in vivo
[4] = test system: T1 generation of five transformation events (XP-2, XP-195, XP-325, XP-326, XP-552); set-up: species or system Glycine max; settings: in vivo
Description: At the V4 stage, 225 g a.i./ha of flazasulfuron was sprayed, and the tolerance of each transformant was observed.

[5] = test system: T1 generation soybean transgenic events; test: Flazasulfuron tolerance test on progeny of 54 single-copy events; set-up: dose or concentration left out as unconfirmed; settings: […] g a.i./ha
[6] = test system: T0 transgenic soybean plants; test: Greenhouse glyphosate spray screen of T0 transgenic events; format: in vivo, Glycine max; settings: 1800 g a.i./ha sprayed at V4 stage; 546 T0 events
Description: After hardening, 685 T0 generation transgenic events obtained from Example 1 were transplanted into natural soil in a greenhouse. Among them, 546 seedlings successfully survived in the greenhouse. When the T0 transgenic soybean plants reached the V4 vegetative stage, 1800 g a.i/ha ofglyphosate was sprayed.

[7] = Wandou 28, 1 week after spraying at V3, doses as Table 10 c1
[8] = Wandou 28, 2 weeks after spraying at V3, doses as Table 10 c1
[9] = Wandou 28, 4 weeks after spraying at V3, doses as Table 10 c1
[10] = XP-2, 2 weeks after spraying at V3, doses as Table 10 c1
[11] = XP-2, 4 weeks after spraying at V3, doses as Table 10 c1

Row | Compound | damage rate(%) After 1 week [1, 7] | damage rate(%) After 2 weeks [1, 8] | damage rate(%) After 4 weeks [1, 9] | Height(cm) After 2 weeks [2, 10] | damage rate(%) After 2 weeks [2, 10] | Height(cm) After 4 weeks [2, 11] | damage rate(%) After 4 weeks [2, 11] | tolerance level of transgenic soybean event XP-2 to herbicides (in words) [2] | further results
1 | CCOC(=O)c1cnn(C)c1S(=O)(=O)NC(=O)Nc1nc(OC)cc(OC)n1 [Pyrazosulfuron-ethyl, pyrazosulfuron-ethyl] | 100% | 100% | 100% | 14.6 ± 0.24 cm | 0% | 21.63 ± 0.52 cm | 0% | high tolerance | 
2 | CS(=O)(=O)c1ccc(C(=O)C2C(=O)CCCC2=O)c([N+](=O)[O-])c1 [Mesotrione, mesotrione] | 100% | 100% | 100% | 14.59 ± 0.24 cm | 0% | 21.63 ± 0.52 cm | 0% | high tolerance | 
3 | COc1cnc(OC)n2nc(NS(=O)(=O)c3c(OCC(F)F)cccc3C(F)(F)F)nc12 [Penoxsulam, penoxsulam] |  |  |  |  |  |  |  |  | Seedling rate % ([1]; in vivo): 0%; damage rate(%) After 1 week ([1]; in vivo): 100%; damage rate(%) After 2 weeks ([1]; in vivo): 100%; damage rate(%) After 4 weeks ([1]; in vivo): 100%; Height(cm) After 1 week ([2]; in vivo): 12.75 ± 1.01 cm; Height(cm) After 2 weeks ([2]; in vivo): 14.6 ± 0.24 cm; Height(cm) After 4 weeks ([2]; in vivo): 21.61 ± 0.52 cm; Seedling rate % ([2]; in vivo): 100%; damage rate(%) After 1 week ([2]; in vivo): 0%; damage rate(%) After 2 weeks ([2]; in vivo): 0%; damage rate(%) After 4 weeks ([2]; in vivo): 0%
4 | Cc1cc(Cl)ccc1OCC(=O)O [MCPA] | 100% | 100% | 100% | 14.7 ± 0.32 cm | 0% | 21.6 ± 0.52 cm | 0% | high tolerance | 
5 | COc1cc(OC)nc(NC(=O)NS(=O)(=O)c2ncccc2C(F)(F)F)n1 [Flazasulfuron, flazasulfuron] |  |  |  |  |  |  |  |  | Number of Events: No phytotoxicity [3]: 5; Number of Events: having phytotoxicity, New leaves getting yellow [3]: 49; tolerance of each transformant (in words) [4]: XP-2 exhibited the highest tolerance; Seedling rate % ([1]; in vivo): 0%; damage rate(%) After 1 week ([1]; in vivo): 100%; damage rate(%) After 2 weeks ([1]; in vivo): 100%; damage rate(%) After 4 weeks ([1]; in vivo): 100%; Height(cm) After 1 week ([2]; in vivo): 12.49 ± 0.35 cm; Height(cm) After 2 weeks ([2]; in vivo): 14.74 ± 0.2 cm; Height(cm) After 4 weeks ([2]; in vivo): 21.69 ± 0.32 cm; Seedling rate % ([2]; in vivo): 100%; damage rate(%) After 1 week ([2]; in vivo): 0%; damage rate(%) After 2 weeks ([2]; in vivo): 0%; damage rate(%) After 4 weeks ([2]; in vivo): 0%; Number of Events: Plant death [5]: 0
6 | O=C(O)CNCP(=O)(O)O [Glyphosate, glyphosate] | 100% | 100% | 100% | 14.58 ± 0.24 cm | 0% | 21.6 ± 0.52 cm | 0% | high tolerance | Number of Events: Growth stunted, dwarfed plants (phytotoxicity) [6]: 327; Number of Events: Plant death [6]: 132; Number of Events: no phytotoxicity [6]: 87
7 | COc1cc(OC)nc(NC(=O)NS(=O)(=O)c2ncccc2C(=O)N(C)C)n1 [Nicosulfuron, nicosulfuron] | 100% | 100% | 100% | 14.73 ± 0.24 cm | 0% | 21.66 ± 0.53 cm | 0% | high tolerance | 
